Source: patent US20260152497A1, “MIDAZO[4,5-c]QUINOLINE-4-AMINE COMPOUNDS AND CONJUGATES THEREOF, THEIR PREPARATION, AND THEIR [sequence] APPLICATIONS” (SANOFI, priority 2021, published 2026)
Read-outs that look alike come from different tables or passages of the source.

Columns and labels:
[1] = tested on: NFkB pathway THP1-Dual cells; assay: Stimulation of human THP-1 monocytic cells, THP1-Dual reporter cells (SEAP, NF-kB); type: cell-based
Procedure: The compounds/conjugates of formula (II) according to the disclosure were subjected to pharmacological testing for determining their activity on human monocytic cells that express at their membrane surface Fc receptors that show binding specificity for the Fc part of the compounds/conjugates of formula (II). The below tests involving measuring the in vitro activity of some compounds/conjugates of formula (II) of the disclosure were carried out using THP1-Dual™ cells as reporter monocyte cells. […] THP1-Dual™ cells (#thpd-nfis) from InvivoGen were used according to the manufacturer's instructions. The cells were obtained by stable integration of two inducible reporter constructs in human THP-1 monocyte cells: an optimized Secreted Embryonic Alkaline Phosphatase (SEAP) reporter gene which is placed under the control of the IFN-β minimal promoter fused to five NF-κB and three c-Rel binding sites and a Secreted Lucia luciferase gene which is placed under the control of an ISG54 minimal promoter fused with five interferon (IFN)-stimulated response elements. As a result, THP1-Dual™ cells allow to study the activation of the NF-κB pathway by monitoring the activity of SEAP, and the interferon regulatory factor pathway, by assessing the activity of Lucia luciferase.

[2] = target: T1, human TLR7 (Homo sapiens, UniProt Q9NYK1); assay: TLR7 pathway activation, parental HEK-Blue hTLR7 reporter cells (SEAP); type: cell-based
T1 construct: host or cells: HEK293 (HEK-Blue hTLR7); engineered variants additionally transfected with tumor antigen genes
T1 sequence (Q9NYK1 27-1049): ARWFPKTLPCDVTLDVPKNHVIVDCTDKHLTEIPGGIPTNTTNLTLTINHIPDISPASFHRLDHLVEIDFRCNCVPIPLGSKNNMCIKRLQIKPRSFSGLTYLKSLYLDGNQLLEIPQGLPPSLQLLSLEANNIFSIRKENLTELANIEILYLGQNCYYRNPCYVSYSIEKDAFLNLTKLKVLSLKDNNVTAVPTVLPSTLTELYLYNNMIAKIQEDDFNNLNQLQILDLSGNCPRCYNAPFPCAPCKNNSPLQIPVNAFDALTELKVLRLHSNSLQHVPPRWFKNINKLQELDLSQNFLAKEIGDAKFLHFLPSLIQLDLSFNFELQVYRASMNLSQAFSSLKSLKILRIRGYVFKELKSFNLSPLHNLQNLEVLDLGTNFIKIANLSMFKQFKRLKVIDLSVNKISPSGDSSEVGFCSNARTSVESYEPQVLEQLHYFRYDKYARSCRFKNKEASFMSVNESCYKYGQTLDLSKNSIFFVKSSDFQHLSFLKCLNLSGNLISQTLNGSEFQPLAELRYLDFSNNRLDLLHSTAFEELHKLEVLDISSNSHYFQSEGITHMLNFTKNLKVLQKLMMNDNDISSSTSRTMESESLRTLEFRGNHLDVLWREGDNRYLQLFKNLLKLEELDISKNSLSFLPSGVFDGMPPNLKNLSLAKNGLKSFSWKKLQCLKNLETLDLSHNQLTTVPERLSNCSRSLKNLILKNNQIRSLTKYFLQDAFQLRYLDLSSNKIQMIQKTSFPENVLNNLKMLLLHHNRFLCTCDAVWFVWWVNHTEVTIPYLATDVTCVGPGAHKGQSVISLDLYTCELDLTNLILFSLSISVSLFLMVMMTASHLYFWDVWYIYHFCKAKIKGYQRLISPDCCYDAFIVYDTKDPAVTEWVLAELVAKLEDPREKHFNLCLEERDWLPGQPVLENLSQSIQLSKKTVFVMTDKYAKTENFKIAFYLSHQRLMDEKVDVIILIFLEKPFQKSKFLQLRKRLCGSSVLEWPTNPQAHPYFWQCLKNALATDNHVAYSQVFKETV
Procedure: The below tests involving measuring the in vitro activity of some compounds of the disclosure on human TLR7 pathway were carried out using parental HEK-Blue™ hTLR7 cells and engineered tumor antigen-expressing HEK-Blue™ hTLR7 cells respectively as reporter cells.
(§1) HEK-Blue™ hTLR7 Cells (#hkb-htlr7) and HEK-Blue™ hTLR8 Cells (#hkb-htlr8) cells from InvivoGen and the engineered tumor antigen expressing cells were used according to the manufacturer's instructions. The HEK-Blue™ hTLR7 and HEK-Blue™ hTLR8 cells were obtained by co-transfection of the hTLR7 or hTLR8 gene in HEK293 cells and an optimized Secreted Embryonic Alkaline Phosphatase (SEAP) reporter gene which is placed under the control of the IFN-β minimal promoter fused to five NF-κB and AP-1-binding sites. The human tumor antigen expressing HEK-Blue™ hTLR7 and hTLR8 cells were obtained by transfection of the tumor antigen genes in the parental cells followed by a polyclonal selection to enrich in cells overexpressing the tumor antigen. Stimulation with a TLR7/8 ligand activates NF-kB and AP-1 which induce the production of SLAP. The cells are seeded in 96-well plate at 3.10E4 cells/well and incubated 24 hours at 37C, 5% CO2 before adding the conjugates to be evaluated. The cells are subsequently incubated with 3-fold serial dilutions of each of the compounds (0.01 nM to 1 μM) for 96 hours at 37° C., 5% CO2. Next, 20 μL of the supernatant is harvested and incubated with 200 μL of QUANTI-Blue™ Solution.

[3] = target: T2, human TLR8 (Homo sapiens, UniProt Q9NR97); assay: TLR8 pathway activation, parental HEK-Blue hTLR8 reporter cells (SEAP); type: cell-based; conditions: unnumbered table b703
T2 construct: host or cells: HEK293 (HEK-Blue hTLR8); engineered variant additionally transfected with the CEACAM5 tumor antigen gene
T2 sequence (Q9NR97 27-1041): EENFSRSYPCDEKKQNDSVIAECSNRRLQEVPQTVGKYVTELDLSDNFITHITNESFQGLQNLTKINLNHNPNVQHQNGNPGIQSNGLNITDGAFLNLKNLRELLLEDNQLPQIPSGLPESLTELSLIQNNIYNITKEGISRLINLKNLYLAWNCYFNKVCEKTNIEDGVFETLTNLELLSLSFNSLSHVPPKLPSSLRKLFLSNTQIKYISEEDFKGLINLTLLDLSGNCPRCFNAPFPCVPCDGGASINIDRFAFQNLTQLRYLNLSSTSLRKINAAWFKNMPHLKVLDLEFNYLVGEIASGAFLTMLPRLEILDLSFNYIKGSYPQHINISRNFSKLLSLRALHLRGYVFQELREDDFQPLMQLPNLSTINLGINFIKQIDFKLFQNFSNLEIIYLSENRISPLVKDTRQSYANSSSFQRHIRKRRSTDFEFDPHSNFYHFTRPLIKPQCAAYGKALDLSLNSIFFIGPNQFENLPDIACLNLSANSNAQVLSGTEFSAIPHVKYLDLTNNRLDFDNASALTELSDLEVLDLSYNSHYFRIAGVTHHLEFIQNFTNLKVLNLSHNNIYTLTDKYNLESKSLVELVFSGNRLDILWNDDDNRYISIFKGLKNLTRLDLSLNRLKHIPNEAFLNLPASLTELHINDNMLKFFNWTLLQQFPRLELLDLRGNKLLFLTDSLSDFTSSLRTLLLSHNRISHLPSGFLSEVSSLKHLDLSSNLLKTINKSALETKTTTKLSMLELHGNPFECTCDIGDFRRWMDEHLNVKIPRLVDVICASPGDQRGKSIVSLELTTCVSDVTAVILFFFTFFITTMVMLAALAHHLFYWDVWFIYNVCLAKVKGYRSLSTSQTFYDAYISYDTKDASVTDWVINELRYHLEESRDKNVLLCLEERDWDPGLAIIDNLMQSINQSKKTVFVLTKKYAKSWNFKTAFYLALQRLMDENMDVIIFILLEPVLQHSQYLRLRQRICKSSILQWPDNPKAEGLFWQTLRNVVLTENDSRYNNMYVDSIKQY
From the text: as §1, with “evaluated.” for “evaluated. The cells are subsequently incubated with 3-fold serial dilutions of each of the compounds (0.01 nM to 1 μM) for 96 hours at 37° C., 5% CO2. Next, 20 μL of the supernatant is harvested and incubated with 200 μL of QUANTI-Blue™ Solution.”

[4] = target: Fc receptors at the membrane surface of human THP-1 monocytic cells; assay: cell-based or functional assay
[5] = monotherapy, intravenous; cited from earlier work
[6] = target: human CEACAM5 (human) (UniProt P06731); assay: cell-based or functional assay
Sequence of human CEACAM5 (human) (P06731 35-685 limits assumed): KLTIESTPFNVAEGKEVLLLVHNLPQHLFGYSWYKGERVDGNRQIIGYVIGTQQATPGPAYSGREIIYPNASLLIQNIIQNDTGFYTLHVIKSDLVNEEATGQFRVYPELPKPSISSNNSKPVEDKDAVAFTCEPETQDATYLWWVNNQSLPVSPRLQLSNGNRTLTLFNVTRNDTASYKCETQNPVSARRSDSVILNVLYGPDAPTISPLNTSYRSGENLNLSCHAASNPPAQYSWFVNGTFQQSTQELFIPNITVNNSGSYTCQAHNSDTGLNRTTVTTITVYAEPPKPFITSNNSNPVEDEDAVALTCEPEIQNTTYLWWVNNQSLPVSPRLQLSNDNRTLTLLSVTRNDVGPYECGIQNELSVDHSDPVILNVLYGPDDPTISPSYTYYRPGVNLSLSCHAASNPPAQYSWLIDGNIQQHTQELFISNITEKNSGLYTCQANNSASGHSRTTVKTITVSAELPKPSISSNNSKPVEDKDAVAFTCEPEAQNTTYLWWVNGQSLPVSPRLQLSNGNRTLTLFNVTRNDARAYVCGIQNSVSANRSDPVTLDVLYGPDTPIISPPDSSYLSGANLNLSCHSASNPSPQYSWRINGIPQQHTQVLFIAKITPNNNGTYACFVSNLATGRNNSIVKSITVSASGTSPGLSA

[7] = tested on: human MKN-45 tumor cells; assay: Incucyte Immune Cell Killing Assay, co-culture of human PBMC and NucLight red-labelled MKN-45 tumor cells; type: cell-based; conditions: 10 nM, 120-hour incubation, PBMC + MKN-45 co-culture
Procedure: The conjugates according to the disclosure were subjected to pharmacological testing for determining their tumor cell killing activity via immune cell activation.
The below tests involving measuring the in vitro tumor cell killing activity of some compounds of the disclosure were carried out using Incucyte® Immune Cell Killing Assay consisting in co-culture of human peripheral blood mononuclear cells (PBMC) and NucLight red-labelled human MKN-45 tumor cells. This Immune Cell Killing Assay allows for direct, measurements of immune cell-mediated killing of MKN-45 tumor cells with the combination of real-time, automated analysis of tumor cell number.
MKN-45 (stomach tumor cell line, DSMZ Germany) were used as they present a very high expression of CEACAM5 (Antigen Binding Capacity ≈3.10E5 receptors per cell). To count living MKN-45 cells in real time without altering their function, MKN45 cells have been stained thanks to a lentiviral-based labeling reagent enabling expression of a nuclear-restricted red (Nuclight Red) fluorescent protein. […]
The plates were then placed in the Incucyte® live-cell analysis apparatus. The Incucyte® Cell-by-Cell Analysis module was used to quantify the number of NucLight red-labelled MKN-45 tumor cells over-time. […]

[8] = Table 1a, 96 hours, read-out: EC50 HEKBlue-hTLR7
[9] = Homo sapiens, THP1-Dual, Table 6, reference ligands

CEACAM5_Tusamitamab-PEG24-R848 ADC [Example 20a]
EC50 ([1]; Table 7a, 96 hours): 0.9 nM

EGFR_cetuximab-PEG24-R848 ADC [Example 23]
EC50 [2, 8]: > 1000 nM

CCOCc1nc2c(N)nc3ccccc3c2n1CC(C)(C)N [Example 3M012, 1-(2-amino-2-methylpropyl)-2-(ethoxymethyl)-1H-imidazo[4,5-c]quinolin-4-amine, reference compound]
EC50 [2, 8]: 518 nM
EC50 ([2]; unnumbered table b703, read-out: EC50 on HEK-Blue ™ hTLR7 cells): 518 nM
EC50 [3]: 2540 nM

CCNCc1nc2c(N)nc3ccccc3c2n1CC(C)(C)O [Gardiquimod, reference compound]
EC50 [1, 9]: > 4000 nM

CCCN(CCC)C(=O)C1=Cc2ccc(-c3ccc(C(=O)N4CCCC4)cc3)cc2N=C(N)C1 [Motolimod, reference compound]
EC50 [1, 9]: 394 nM

CCOCc1nc2c(N)nc3ccccc3c2n1CC(C)(C)O [Example R848, 4-amino-2-(ethoxymethyl)-alpha, alpha-dimethyl-1H-imidazo(4,5-c)quinoline-1-ethanol, reference compound]
EC50 [1, 9]: 212 nM
EC50 ([1]; Homo sapiens, THP1-Dual, Table 7b, 96 hours): 238 nM

CEACAM5_Tusamitamab-PEG12-R848 ADC [Example 14]
EC50 ([1]; Table 7a, 96 hours): 2.8 nM

CEACAM5_Tusamitamab-PEG8-R848 ADC (Example 8) (antibody)
EC50 NFkB pathway THP1-Dual cells [4]: 1.9 nM

CEACAM5_Tusamitamab-PEG12-R848 ADC (Example 14) (antibody)
EC50 NFkB pathway THP1-Dual cells [4]: 2.8 nM

CEACAM5_Tusamitamab-PEG8-R848 ADC [Example 8]
EC50 ([1]; Table 7a, 96 hours): 1.9 nM

CEACAM5_Tusamitamab-PEG24-R848 ADC (Example 20a) (antibody)
EC50 NFkB pathway THP1-Dual cells [4]: 0.9 nM

CEACAM5_Tusamitamab-PEG4-R848 ADC [Example 2]
EC50 ([1]; Table 7a, 96 hours): 0.8 nM

CCOCc1nc2c(N)nc3ccccc3c2n1CC(C)(C)O.O=S(=O)(O)O [BDB-001]
treatment-related adverse events, share of the enrolled patients [5]: around 78%

Irrelevant human IgG1 (antibody)
Internalized fluorescent intensity (Median) on HEKBlue-hTLR7-CEACAM5, 4 hours [6]: 144
Internalized fluorescent intensity (Median) on HEKBlue-hTLR7-CEACAM5, 24 hours [6]: 525
Internalized fluorescent intensity (Median) on HEKBlue-hTLR7-CEACAM5, 48 hours [6]: 738
Internalized fluorescent intensity (Median) on HEKBlue-hTLR7-CEACAM5, 72 hours [6]: 833
Internalized fluorescent intensity (Median) on HEKBlue-hTLR8-CEACAM5, 4 hours [6]: 68
Internalized fluorescent intensity (Median) on HEKBlue-hTLR8-CEACAM5, 24 hours [6]: 120
Internalized fluorescent intensity (Median) on HEKBlue-hTLR8-CEACAM5, 48 hours [6]: 151
Internalized fluorescent intensity (Median) on HEKBlue-hTLR8-CEACAM5, 72 hours [6]: 167

CEACAM5_Tusamitamab-PEG24-R848
% of Immune cell-mediated killing activity [7]: 57%

CEACAM5_Tusamitamab_E152C_S375C-PEG24-R848 ADC [Example 43]
EC50 ([2]; Table 1c, 96 hours, read-out: EC50 HEKBlue-hTLR7): > 1000 nM
EC50 ([1]; Table 7b, 96 hours): 2 nM

CEACAM5_Tusamitamab-PEG4-R848 ADC (Example 2) (antibody)
EC50 NFkB pathway THP1-Dual cells [4]: 0.8 nM
